For eight compounds, IC50 results are on record in BindingDB's records for doi:10.1016/j.bmc.2008.01.035 (Anhui University of Technology, 2008).

SMILES strings stand for the structures.

DNA gyrase subunit A/B, sequence (P20831 whole entry): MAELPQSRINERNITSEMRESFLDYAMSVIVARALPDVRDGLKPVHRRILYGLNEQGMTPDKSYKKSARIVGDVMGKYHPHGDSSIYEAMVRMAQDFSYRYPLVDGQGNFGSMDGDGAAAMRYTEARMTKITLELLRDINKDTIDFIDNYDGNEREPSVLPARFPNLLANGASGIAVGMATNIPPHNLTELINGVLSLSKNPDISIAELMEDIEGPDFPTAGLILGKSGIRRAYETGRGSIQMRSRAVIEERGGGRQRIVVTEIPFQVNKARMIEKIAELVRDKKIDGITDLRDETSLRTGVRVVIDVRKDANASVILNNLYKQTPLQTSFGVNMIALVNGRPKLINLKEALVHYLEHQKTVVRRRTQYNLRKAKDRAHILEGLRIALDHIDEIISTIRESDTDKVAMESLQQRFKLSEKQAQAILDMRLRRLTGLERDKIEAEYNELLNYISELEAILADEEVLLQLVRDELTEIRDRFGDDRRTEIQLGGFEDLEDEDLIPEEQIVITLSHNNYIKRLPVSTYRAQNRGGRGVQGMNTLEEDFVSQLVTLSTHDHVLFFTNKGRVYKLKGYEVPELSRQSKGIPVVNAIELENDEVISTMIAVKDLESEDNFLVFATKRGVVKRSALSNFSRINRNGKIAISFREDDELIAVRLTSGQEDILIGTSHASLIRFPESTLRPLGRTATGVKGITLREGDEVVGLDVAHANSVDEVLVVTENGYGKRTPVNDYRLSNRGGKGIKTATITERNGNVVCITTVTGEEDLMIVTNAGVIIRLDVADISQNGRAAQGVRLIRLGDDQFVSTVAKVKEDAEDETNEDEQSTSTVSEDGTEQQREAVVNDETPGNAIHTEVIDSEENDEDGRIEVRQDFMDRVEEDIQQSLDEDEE
DNA gyrase subunit A/B, sequence (P0A0K8 whole entry): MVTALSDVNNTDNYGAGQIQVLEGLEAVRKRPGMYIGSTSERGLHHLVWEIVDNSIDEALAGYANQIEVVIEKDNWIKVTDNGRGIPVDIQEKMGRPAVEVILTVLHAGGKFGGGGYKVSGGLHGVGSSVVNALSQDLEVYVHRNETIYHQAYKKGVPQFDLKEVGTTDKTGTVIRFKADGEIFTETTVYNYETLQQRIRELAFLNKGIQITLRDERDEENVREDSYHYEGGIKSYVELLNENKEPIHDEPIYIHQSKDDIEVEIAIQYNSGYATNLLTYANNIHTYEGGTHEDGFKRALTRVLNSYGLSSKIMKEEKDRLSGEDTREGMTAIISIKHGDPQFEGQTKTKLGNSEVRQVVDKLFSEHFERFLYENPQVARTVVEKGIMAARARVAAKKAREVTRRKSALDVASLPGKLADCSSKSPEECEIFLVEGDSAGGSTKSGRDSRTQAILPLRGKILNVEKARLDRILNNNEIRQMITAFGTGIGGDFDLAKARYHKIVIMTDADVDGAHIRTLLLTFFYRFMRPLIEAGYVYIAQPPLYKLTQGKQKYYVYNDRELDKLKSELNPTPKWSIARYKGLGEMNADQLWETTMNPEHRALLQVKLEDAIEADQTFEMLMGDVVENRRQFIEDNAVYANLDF

The experiment addresses DNA gyrase subunit A/B (Staphylococcus aureus, UniProt P0A0K8+P20831). Description: Inhibition of Staphylococcus aureus DNA gyrase supercoiling activity.
With `CCC(=O)O/N=C(/C)N1N=C(C)CC1c1ccccc1OCc1ccc(F)cc1` (stereo not drawn), the IC50 is greater than 314000 nM.
Under `CC1=NN(/C(C)=N\OC(=O)c2cccnc2)C(c2ccc(OCc3ccc(F)cc3)cc2)C1` (stereo not drawn) stands 7830 nM.
As to `COC1CC(c2ccccc2)=NN1/C(C)=N\OC(=O)c1ccco1` (stereo not drawn), 12200 nM corresponded to half-maximal inhibition (IC50).
Compound `COC1CC(c2ccccc2)=NN1/C(C)=N\OC(=O)c1ccc(C(F)(F)F)cc1` (stereo not drawn) came in with an IC50 of 308 nM.
With `C/C(=N/OC(=O)c1ccco1)N1N=C(c2ccc(Cl)cc2Cl)CC1c1ccccc1F` (stereo not drawn) the figure was 271 nM.
Under `C=CC(=O)O/N=C(/C)N1N=C(c2ccc(Cl)cc2Cl)CC1c1ccccc1F` (stereo not drawn) stands 1180 nM.
Under `C/C(=N/OC(=O)c1ccco1)N1N=C(c2ccc(Cl)cc2Cl)CC1c1ccc(C(F)(F)F)cc1` (stereo not drawn) stands 979 nM; under `CC1=NN2C(C1)c1ccccc1CC2(C)C` (stereo not drawn), 1160 nM.

By IC50 is commonly meant the midpoint of a concentration-inhibition curve.
